Measurements reported in publication PMC8333062, “Chemical tools for epichaperome-mediated interactome dysfunctions of the central nervous system” (Nature Communications, 2021).
Where “and” joins values, the source holds several entries; their conditions need not be identical. Equal entries are not always repeated. Where two headings read alike, the source gives them in different places.

Columns and labels:
[1] = molecular target: HSP90 pools in JNPL3 (AD transgenic) mouse brain lysate; assay: Fluorescence polarization (FP) competitive binding, cy3B-GM; details: read-out: FP relative affinity
[2] = for PAMPA_BBB: PAMPA; for PAMPA-BBB: pH 7.4
[3] = in vitro; details: PAMPA, pH 7.4
[4] = PAMPA-BBB permeability; details: for PAMPA_BBB: Supplementary Table 6; for Papp at 16 h, 50 μM: pig, PAMPA, pH 7.4
[5] = Pharmacokinetic studies in mice (LC-MS/MS); assay type: in vivo, B6D2F1 mice; parameters: Plasma level: unit: uM; details: individual animals
Method: Blood and brain tissue were collected following euthanasia at the scheduled time points of 5, 30 min, 1, 4, and 8 h following iv dosing and of 30 min, 1, 4, and 8 h following po dosing. Brain samples were immediately flash frozen in liquid nitrogen following collection and stored at −80 °C until analysis. Blood samples were collected into an EDTA tube by heart puncture and centrifuged at 17,000×g for 5 min at 4 °C to separate the plasma and immediately frozen on dry ice and stored at −80 °C until analysis. […] This was homogenized, extracted with methylene chloride, and evaporated on a GeneVac. […] Drug concentration (μM) in the brain was then modified to account for an average water space of 0.8 mL g^−1.

[6] = 10 µM PU-HZ151, 60 min
Method: PU-HZ151 (1 and 10 µM) was incubated with human, CD-1 mouse, Sprague Dawley rat, and beagle dog liver microsomes (0.5 mg protein/ml) and appropriate cofactors (2.5 mM NADPH and 3.3 mM MgCl2) in 100 mM phosphate buffer, pH 7.4, in a 37 °C shaking water bath. The incubation contained a final organic solvent concentration of 0.1% DMSO. Reactions were started with the addition of NADPH/magnesium chloride mix and stopped by removing 100 µL aliquots at selected time points (15, 30, and 60 min) and mixing with 200 µl of acetonitrile containing 100 ng/ml haloperidol (internal standard). […] Experimental controls consisted of: a) incubation with 1 or 5 µM propranolol as a positive control for metabolism, and b) incubation of 1 and 10 µM PU-HZ151 with heat-inactivated microsomes (0.5 mg protein mL^−1) for 0 and 60 min. All samples were assayed in duplicate. To determine metabolic stability of PU-HZ151, the percent remaining at each time point was calculated by dividing the peak area ratio of PU-HZ151 /internal standard at each time point by the mean peak area ratio at 0 min, multiplied by 100.
In order to detect and characterize metabolites of PU-HZ151 formed in selected microsomal incubation samples, the following procedures were used to prepare the samples: (1) microsomal incubation samples generated in the metabolic stability experiments (1 and 10 µM PU-HZ151, duplicate replicates per timepoint) were initially processed by addition of 2 parts acetonitrile containing the internal standard haloperidol, to 1 part sample, followed by vortexing, centrifugation, and transfer of the supernatant to a 1.5 mL microcentrifuge tube. Samples were stored at −80 °C prior to analysis for metabolites. (2) Samples were thawed to room temperature, vortexed, centrifuged, and a volume of the supernatant diluted 1:1 with 5% acetonitrile, to reduce the percent acetonitrile in the final sample. Samples were then transferred to HPLC vials with glass inserts for subsequent LC-MS analysis.
Samples were analyzed by LC-MS using positive-ion electrospray ionization and reverse-phase chromatography in full-scan mode with MS/MS product-ion spectra generated for detected metabolite masses. This was performed using the MS2 scan mode of the G6410B mass spectrometer to produce MS/MS product-ion spectra for masses detected at sufficient intensities. Chromatography was performed using a ZORBAX Eclipse XDB-C18 4.6 × 50 mm, 5 µm, column, with gradient elution at 1 mL min^−1. Mobile phase was comprised of A = MilliQ Water with 0.1% formic acid, B = acetonitrile.

[7] = displacement of cy3B-GM, 24 h, 4 °C, mean±SD, n=3

SMILES | EC50 [1, 7] | PAMPA_BBB [2] | PAMPA-BBB [2] | further results
CC(C)NCCCn1c(Sc2cc3ccccc3cc2I)nc2c(N)ncnc21 [Compound 58] | 97 ± 3 nM | 10.8±0.2 | 10.8±0.2 10-6 cms-1 | –
CC1CN1CCCn1c(Cc2cc3c(cc2I)OCO3)nc2c(N)nc(F)nc21 (centres unmarked) [Compound 66] | – | 5.8±1.5 | 5.8±1.5 10-6 cms-1 | EC50 [1]: 105 ± 5 nM
CC(C)N(C)CCCn1c(Cc2cc3c(cc2I)OCO3)nc2c(N)nc(F)nc21 [Compound 60] | 39 ± 2 nM | 5.8±1.3 | 5.8±1.3 10-6 cms-1 | –
C=CCN(C)CCCn1c(Cc2cc3c(cc2I)OCO3)nc2c(N)nc(F)nc21 [Compound 65] | 44 ± 4 nM | 11.3±1.9 | 11.3±1.9 10-6 cms-1 | –
CCN(CCCn1c(Cc2cc3c(cc2I)OCO3)nc2c(N)nc(F)nc21)C(C)C [Compound 61] | 30 ± 13 nM | 7.5±0.2 | 7.5±0.2 10-6 cms-1 | –
Nc1ncnc2c1nc(Sc1cc3c(cc1I)OCC3)n2CCCBr [Compound 40] | 8 ± 0.4 nM | – | – | Papp at 16 h, 50 μM [3]: 7.7 ± 0.8 ×10⁻⁶ cm/s; PAMPA_BBB [4]: 7.7±0.8
CCN(C)CCCn1c(Cc2cc3c(cc2I)OCO3)nc2c(N)nc(F)nc21 [Compound 62] | 45 ± 19 nM | 7.5±0.1 | 7.5±0.1 10-6 cms-1 | –
CC(C)NCCCn1c(Sc2cc3c(cc2I)OCCCO3)nc2c(N)ncnc21 [Compound 35] | 232 ± 10 nM | – | – | –
CC(=O)c1cc2c(cc1Sc1nc3c(N)ncnc3n1CCCNC(C)C)OCO2 [Compound 6] | 103 ± 7 nM | – | – | –
CC(C)(C)CNCCn1c(Sc2cc(O)c(O)cc2I)nc2c(N)ncnc21 [Compound M2] | – | – | – | Brain level ([5]; time 5 min): 0 (3×) and 0.75 and 0.71; Brain level ([5]; time 0.5 h): 0.02 and 0.49 and 0 (2×); Brain level ([5]; time 1 h): 0 (3×) and 0.04; Brain level ([5]; time 4 h): 0; Brain level ([5]; time 8 h): 0; Plasma level ([5]; time 5 min): 0.04 and 0 (4×); Plasma level ([5]; time 0.5 h): 0.02 and 0 (3×); Plasma level ([5]; time 1 h): 0 (3×) and 0.03; Plasma level ([5]; time 4 h): 0; Plasma level ([5]; time 8 h): 0; % Peak area of metabolite ([6]; replicate 1): 13.0%; % Peak area of metabolite ([6]; replicate 2): 9.0%
C=CCc1cc2c(cc1Sc1nc3c(N)ncnc3n1CCCNC(C)C)OCO2 [Compound 8] | 122 ± 4 nM | 6.7±0.7 | 6.7±0.7 10-6 cms-1 | –
Nc1nc(F)nc2c1nc(Cc1cc3c(cc1I)OCO3)n2CCCN1CCOCC1 [Compound 68] | – | 6.3±1.1 | 6.3±1.1 10-6 cms-1 | EC50 [1]: 202 ± 7 nM
Nc1nc(F)nc2c1nc(Cc1cc3c(cc1I)OCO3)n2CCCN(CCO)C1CCCCC1 [Compound 70] | 24 ± 2 nM | 8.5±0.1 | 8.5±0.1 10-6 cms-1 | –
CC(C)NCCCn1c(Sc2cc3c(cc2I)OCCO3)nc2c(N)ncnc21 [Compound 28] | 34.5 ± 1.7 nM | – | – | Papp at 16 h, 50 μM [3]: 6.6 ± 0.6 ×10⁻⁶ cm/s; PAMPA_BBB [4]: 6.6±0.6
CCc1cc2c(cc1Cc1nc3c(N)nc(F)nc3n1CCCNC(C)C)OCO2 [Compound 21] | 813 ± 56 nM | – | – | Papp at 16 h, 50 μM [3]: 5.9 ± 0.6 ×10⁻⁶ cm/s; PAMPA_BBB [4]: 5.9±0.6
CC(C)(C)NCCCn1c(Cc2cc3c(cc2I)OCO3)nc2c(N)nc(F)nc21 [Compound 59] | 12.7 ± 1.6 nM | – | – | PAMPA_BBB [4]: 13.3±1.4; Papp at 16 h, 50 μM [4]: 13.3 ×10⁻⁶ cm/s
CC(C)CNCCn1c(Sc2cc3c(cc2I)CCO3)nc2c(N)ncnc21 [Compound 86] | 5.5 ± 0.6 nM | 9.3±0.2 | 9.3±0.2 10-6 cms-1 | –
CC(C)NCCCn1c(Sc2cc3c(cc2-c2ccccc2)OCO3)nc2c(N)ncnc21 [Compound 9] | 270 ± 10 nM | 9.9±0.5 | 9.9±0.5 10-6 cms-1 | –
C[N+](C)(C)CCCn1c(Cc2cc3c(cc2I)OCO3)nc2c(N)nc(F)nc21 [Compound 72] | 155 ± 5 nM | – | – | PAMPA_BBB [4]: 1.3±0.1
CC(C)NCCCn1c(Sc2cc3c(cc2-c2ccc(N(C)C)cc2)OCO3)nc2c(N)ncnc21 [Compound 12] | 1390 nM | 9.2±0.3 | 9.2±0.3 10-6 cms-1 | –

SMILES | EC50 [1, 7] | PAMPA_BBB [2] | PAMPA-BBB [2] | further results
CC(C)NCCCn1c(Sc2cc3c(cc2C#N)OCO3)nc2c(N)ncnc21 [Compound 5] | 285 ± 13 nM | – | – | –
CC(C)NCCCn1c(Sc2cc3c(cc2-c2ccc(Br)cc2)OCO3)nc2c(N)ncnc21 [Compound 10] | 732 ± 13 nM | – | – | Papp at 16 h, 50 μM [3]: 11.5 ± 0.4 ×10⁻⁶ cm/s; PAMPA_BBB [4]: 11.5±0.4
C=Cc1cc2c(cc1Sc1nc3c(N)ncnc3n1CCCNC(C)C)OCO2 [Compound 7] | 213 ± 7 nM | 6.1±0.1 | 6.1±0.1 10-6 cms-1 | –
CCCN(CCCn1c(Cc2cc3c(cc2I)OCO3)nc2c(N)nc(F)nc21)CC1CC1 [Compound 63] | 43 ± 4 nM | 8.4±2.1 | 8.4±2.1 10-6 cms-1 | –
CC(C)NCCCn1c(Sc2cc3c(cc2I)CCC3)nc2c(N)ncnc21 [Compound 53] | 4.5 ± 0.5 nM | – | – | PAMPA_BBB [4]: 15.1±0.7; Papp at 16 h, 50 μM [4]: 15.1 ×10⁻⁶ cm/s
CC(C)NCCCn1c(Cc2cc(Br)c3c(c2)OCO3)nc2c(N)nc(F)nc21 [Compound 18] | 191 ± 6 nM | – | – | –
C=CCc1cc2c(cc1Cc1nc3c(N)nc(F)nc3n1CCCNC(C)C)OCO2 [Compound 23] | > 5000 nM | – | – | Papp at 16 h, 50 μM [3]: 4.6 ± 0.6 ×10⁻⁶ cm/s; PAMPA_BBB [4]: 4.6±0.6
CC(C)NCCCn1c(Sc2cc3c(cc2Br)OCO3)nc2c(N)ncnc21 [Compound 3] | 122 ± 7 nM | – | – | –
CC(C)NCCCn1c(Cc2cc3c(cc2C#N)OCO3)nc2c(N)nc(F)nc21 [Compound 20] | 219 ± 19 nM | – | – | –
CC(C)N(CCO)CCCn1c(Cc2cc3c(cc2I)OCO3)nc2c(N)nc(F)nc21 [Compound 69] | – | 1.1±0.1 | 1.1±0.1 10-6 cms-1 | EC50 [1]: 61 ± 2 nM
C#CCN(C)CCCn1c(Cc2cc3c(cc2I)OCO3)nc2c(N)nc(F)nc21 [Compound 64] | 30 ± 6 nM | – | – | PAMPA_BBB [4]: 11.1±0.1; Papp at 16 h, 50 μM [4]: 11.1 ×10⁻⁶ cm/s
CC(C)CNCCn1c(Sc2cc3c(cc2I)OCO3)nc2c(N)ncnc21 [Compound 84] | 14 ± 2 nM | 8.9±0.5 | 8.9±0.5 10-6 cms-1 | –
Nc1nc(F)nc2c1nc(Cc1cc3c(cc1I)OCO3)n2CCCN1CCN(CCO)CC1 [Compound 71] | – | 4.7±0.5 | 4.7±0.5 10-6 cms-1 | EC50 [1]: 200 ± 5 nM
CC(C)NCCCn1c(Cc2cc(I)c3c(c2)OCO3)nc2c(N)nc(F)nc21 [Compound 17] | 85 ± 10 nM | – | – | –
NCCn1c(Sc2cc3c(cc2I)OCO3)nc2c(N)ncnc21 [Compound M1] | – | – | – | Brain level ([5]; time 5 min): 0; Brain level ([5]; time 0.5 h): 0; Brain level ([5]; time 1 h): 0; Brain level ([5]; time 4 h): 0; Brain level ([5]; time 8 h): 0; Plasma level ([5]; time 5 min): 0; Plasma level ([5]; time 0.5 h): 0; Plasma level ([5]; time 1 h): 0; Plasma level ([5]; time 4 h): 0; Plasma level ([5]; time 8 h): 0; % Peak area of metabolite ([6]; replicate 1): 53.0%; % Peak area of metabolite ([6]; replicate 2): 59.1%
NCCn1c(Sc2cc(O)c(O)cc2I)nc2c(N)ncnc21 [Compound M5] | – | – | – | % Peak area of metabolite ([6]; replicate 1): 2.5%; % Peak area of metabolite ([6]; replicate 2): 2.9%
CC(C)NCCCn1c(Sc2cc3c(cc2-c2ccc(C(C)(C)C)cc2)OCO3)nc2c(N)ncnc21 [Compound 11] | 2600 nM | 12.5±0.6 | 12.5±0.6 10-6 cms-1 | –
C=Cc1cc2c(cc1Cc1nc3c(N)nc(F)nc3n1CCCNC(C)C)OCO2 [Compound 22] | 146 ± 9 nM | – | – | Papp at 16 h, 50 μM [3]: 5.6 ± 0.2 ×10⁻⁶ cm/s; PAMPA_BBB [4]: 5.6±0.2
Nc1nc(F)nc2c1nc(Cc1cc3c(cc1I)OCO3)n2CCCN1CCCCC1 [Compound 67] | 112 ± 6 nM | – | – | Papp at 16 h, 50 μM [3]: 6.9 ± 0.2 ×10⁻⁶ cm/s; PAMPA_BBB [4]: 6.9±0.2
